From patent US7696238B2, “Substituted benzo[d]isoxazol-3-yl amine compounds as analgesics” (Gruenenthal GmbH, priority 2005, dated 2010) come the findings set out here.

The experiment has as its target T1, KCNQ2/3 ion channel (KCNQ2/3-expressing CHO-K1 cells) (Homo sapiens, UniProt O43525+O43526).
T1 construct: expressed in transfected cells; host or cells: CHO-K1
Nature of the experiment: Fluorescence assay (FLIPR instrument, membrane potential dye) for substances acting agonistically on the KCNQ2/3 ion channel. In kind it is cell-based. Conditions: difference between maximum and minimum values, agonistic action detected from a value of −40 (and below). As to the method: Pharmacological Test Methods I. Fluorescence Assay (FLIPR™ Instrument) for the Identification of Substances Acting Agonistically on the KCNQ2/3 Ion Channel
On the day before the experiment, KCNQ2/3-expressing CHO-K1 cells and CHO-K1 empty strain cells were seeded out onto coated poly-D-lysine black/clear plates (Falcon/BD Company; Order No.: 356640) in a concentration of 20000 cells/100 μl MEM alpha, 50 ml FCS, 5.5 ml PIS/G/solution (100×) and then incubated for 20-24 hours in an incubator (37° C., 5% CO2). On the day of the experiment the HBSS/hepes working solution and the FMP/HBSS/hepes mixture (Membrane Potential Assay Kit Red (FMP), bulk format Cat. No. R8123) were initially prepared according to the following protocol:
• 1000 ml 1× HBSS buffer (Hank's Balanced Salt Solution (1×) (Gibco; No. 14025)+10 ml hepes (1M stock solution, pH 7.4; hepes Na salt (Sigma Company; No. H7006-500 g; storage at 4° C. in a refrigerator) 2. 1× FMP/HBSS/hepes working solution: • 6 ml HBSS/hepes buffer are added to 5 ml of the FMP solution stored at −20° C. (preparation see below; thawing out at room temperature). The test substances (2 mM batch solution in 100% DMSO) contained in drug plates (Costar 96-well plates, catalogue No. 3795) were then diluted by adding HBSS/hepes buffer to a concentration of 30 μM (3× concentrated). The assay plates on which the cells grow were washed once with 200 μl HBSS/hepes (Cellwash Washer, Labsystems Company, catalogue No. 5161550) and the remaining volume was removed by tapping out the inverted plate twice. 100 μl of the FMP/HBSS/hepes working solution were then added in each case to the cell plates and incubated for 1 hour in the CO2 incubator at 37° C. and 5% CO2. The measurements are then carried out with a FLIPR III instrument from the Molecular Devices company (96-format, using the 540-590 nm band-pass filter in the #2 localization). In the experimental setup of the FLIPR software, filter #2 should be selected. The cell plates and the substance plates were fed alternately into the input stack. A signal test was carried out in each case with the cell plates before adding the substance. The test substances were then added via the pipetting unit of the FLIPR (added volume 50 μl, 3× concentrated, end concentration 10 μM) to the cavities of the cell plates in a total volume of 150 μl/well. The threshold data of the FLIPR program were as follows:
The pipette tips were washed after each pipetting procedure 3 times with 1% DMSO in water. The times of the measurement intervals after addition of the test substances are as follows:
Total measurement time: 6 min/plate
The test samples were evaluated by calculating the difference between the maximum and minimum values. EC50/IC50 values are calculated using the Graph Pad Prism software.
Preparation of the membrane potential loading buffer (membrane potential assay kit red (FMP), bulk format cat. No. R8123) according to the manufacturer's instructions:
10 ml of the 10× assay buffer (component B) were diluted with 90 ml of sterile water and then adjusted to pH 7.4 with 1.0N NaOH (1× assay buffer). One vessel with the FLIPR membrane potential assay component A was completely dissolved in 100 ml 1× assay buffer and thoroughly mixed for 10 minutes with a magnetic stirrer. 5 ml aliquots were then stored at −20° C. (storage shelf life ca. 2 weeks).
An agonistic action can be detected starting from a value of −40 (and below).
`S=C(Nc1noc2cc(Cl)ccc12)NC1CCCC1` [Example 103, 1-(6-chlorobenzo[d]isoxazol-3-yl)-3-cyclopentyl-thiourea]: the “FLIPR membrane potential fluorescence change (ΔF %, max minus min); negative values indicate KCNQ2/3 agonism” value is −58%.

With `Cc1cc(C)cc(NC(=S)Nc2noc3cccc(N(C)C)c23)c1` [Example 63, 1-(4-dimethylamino-benzo[d]isoxazol-3-yl)-3-(3,5-dimethylphenyl)-thiourea], the “FLIPR membrane potential fluorescence change (ΔF %, max minus min); negative values indicate KCNQ2/3 agonism” value is −56%.

On to `Cc1ccc2onc(NC(=S)Nc3ccc(C(F)(F)F)cc3)c2c1` [Example 96, 1-(5-methylbenzo[d]isoxazol-3-yl)-3-(4-trifluoromethylphenyl)-thiourea], for which the “FLIPR membrane potential fluorescence change (ΔF %, max minus min); negative values indicate KCNQ2/3 agonism” value is −57%.

Regarding `COC(=O)CNC(=S)Nc1noc2ccc(C)cc12` [Example 94, [3-(5-methylbenzo[d]isoxazol-3-yl)-thioureido]-acetic acid methyl ester], the “FLIPR membrane potential fluorescence change (ΔF %, max minus min); negative values indicate KCNQ2/3 agonism” value is on record as −47%.

Turning to `Cc1cccc(Cl)c1NC(=S)Nc1noc2cc(F)ccc12` [Example 113, 1-(2-chloro-6-methylphenyl)-3-(6-fluorobenzo[d]isoxazol-3-yl)-thiourea], the “FLIPR membrane potential fluorescence change (ΔF %, max minus min); negative values indicate KCNQ2/3 agonism” value is listed as −55%.

`COc1ccc(NC(=S)Nc2noc3cccc(OCC(F)(F)F)c23)cc1` [Example 84, 1-(4-methoxyphenyl)-3-[4-(2,2,2-trifluoroethoxy)-benzo[d]isoxazol-3-yl]-thiourea]: the “FLIPR membrane potential fluorescence change (ΔF %, max minus min); negative values indicate KCNQ2/3 agonism” value is reported as −40%.

Regarding `CCc1ccccc1NC(=S)Nc1noc2ccc(Br)cc12` [Example 100, 1-(5-bromobenzo[d]isoxazol-3-yl)-3-(2-ethylphenyl)-thiourea], the “FLIPR membrane potential fluorescence change (ΔF %, max minus min); negative values indicate KCNQ2/3 agonism” value is listed as −42%.

As for `COC(=O)C(C)NC(=S)Nc1noc2cccc(F)c12` (stereo not shown) [Example 50, 2-[3-(4-fluoro-benzo[d]isoxazol-3-yl)-thioureido]-propionic acid methyl ester], the “FLIPR membrane potential fluorescence change (ΔF %, max minus min); negative values indicate KCNQ2/3 agonism” value was −59.5%.

With `COc1cccc2onc(NC(=S)NC(C)c3ccccc3)c12` (stereo not shown) [Example 128, 1-(4-methoxybenzo[d]isoxazol-3-yl)-3-(1-phenylethyl)-thiourea], the “FLIPR membrane potential fluorescence change (ΔF %, max minus min); negative values indicate KCNQ2/3 agonism” value is recorded as −47%.

On to `S=C(NCc1ccccc1)Nc1noc2cccc(Cl)c12` [Example 52, 1-benzyl-3-(4-chloro-benzo[d]isoxazol-3-yl)-thiourea], for which the “FLIPR membrane potential fluorescence change (ΔF %, max minus min); negative values indicate KCNQ2/3 agonism” value is −67.5%.

On to `Cc1ccc2onc(NC(=S)Nc3ccccc3C(C)C)c2c1` [Example 95, 1-(2-isopropylphenyl)-3-(5-methyl-benzo[d]isoxazol-3-yl)-thiourea], for which the “FLIPR membrane potential fluorescence change (ΔF %, max minus min); negative values indicate KCNQ2/3 agonism” value is −64%.

With `COc1cccc(NC(=S)Nc2noc3cc(Cl)ccc23)c1` [Example 107], the “FLIPR membrane potential fluorescence change (ΔF %, max minus min); negative values indicate KCNQ2/3 agonism” value was −80%.

With `Fc1ccc2c(NCc3ccc(SC(F)(F)F)cc3)noc2c1` [Example 172, (6-fluorobenzo[d]isoxazol-3-yl)-(4-trifluoromethyl-sulfanyl-benzyl)-amine], the “FLIPR membrane potential fluorescence change (ΔF %, max minus min); negative values indicate KCNQ2/3 agonism” value is −68%.

For the compound `S=C(Nc1noc2ccccc12)NC1CCCCC1` [Example 23, 1-benzo[d]isoxazol-3-yl-3-cyclohexyl-thiourea], the “FLIPR membrane potential fluorescence change (ΔF %, max minus min); negative values indicate KCNQ2/3 agonism” value is reported as −40%.

Regarding `COc1ccc(NC(=S)Nc2noc3cc(Br)ccc23)cc1OC` [Example 108, 1-(6-bromobenzo[d]isoxazol-3-yl)-3-(3.4-dimethoxyphenyl)-thiourea], the “FLIPR membrane potential fluorescence change (ΔF %, max minus min); negative values indicate KCNQ2/3 agonism” value is reported as −53.5%.

In the case of `CC(NC(=S)Nc1noc2cccc(Cl)c12)c1ccccc1` (stereo not shown) [Example 53, 1-(4-chlorobenzo[d]isoxazol-3-yl)-3-(1-phenyl-ethyl)-thiourea], the “FLIPR membrane potential fluorescence change (ΔF %, max minus min); negative values indicate KCNQ2/3 agonism” value is on record as −42.5%.

Turning to `Cc1ccc(COc2cccc3onc(NC(=S)NC4CCCCC4)c23)cc1` [Example 90, 1-cyclohexyl-3-[4-(4-methylbenzyloxy)-benzo[d]isoxazol-3-yl]-thiourea], the “FLIPR membrane potential fluorescence change (ΔF %, max minus min); negative values indicate KCNQ2/3 agonism” value was −41.5%.

For `Cc1ccc(NC(=S)Nc2noc3c(F)cccc23)cc1` [Example 124, 1-(7-fluorobenzo[d]isoxazol-3-yl)-3-p-tolyl-thiourea], the “FLIPR membrane potential fluorescence change (ΔF %, max minus min); negative values indicate KCNQ2/3 agonism” value is −50%.

As for `COc1cccc2onc(NC(=S)NCc3ccc(Cl)cc3)c12` [Example 129, 1-(4-chlorobenzyl)-3-(4-methoxy-benzo[d)isoxazol-3-yl)-thiourea], the “FLIPR membrane potential fluorescence change (ΔF %, max minus min); negative values indicate KCNQ2/3 agonism” value is −42%.

With `Fc1c(Cl)cccc1CNc1noc2cccc(Cl)c12` [Example 200, (4-chlorobenzo[d]isoxazol-3-yl)-(3-chloro-2-fluoro-benzyl)-amine], the “FLIPR membrane potential fluorescence change (ΔF %, max minus min); negative values indicate KCNQ2/3 agonism” value is −74%.

With `COc1ccc(NC(=S)Nc2noc3cccc(OC)c23)c(OC)c1` [Example 134, 1-(2,4-dimethoxyphenyl)-3-(4-methoxybenzo[d]isoxazol-3-yl)-thiourea], the “FLIPR membrane potential fluorescence change (ΔF %, max minus min); negative values indicate KCNQ2/3 agonism” value was −42%.

For `Fc1ccc2onc(NC(=S)NCC3CCCO3)c2c1` (stereo not shown) [Example 98, 1-(5-fluorobenzo[d]isoxazol-3-yl)-3-(tetrahydrofuran-2-yl-methyl)-thiourea], the “FLIPR membrane potential fluorescence change (ΔF %, max minus min); negative values indicate KCNQ2/3 agonism” value is on record as −43.5%.

Consider `CCOc1ccc(NC(=S)Nc2noc3ccccc23)cc1` [Example 31, 1-benzo[d]isoxazol-3-yl-3-(4-ethoxyphenyl)-thiourea], for which the “FLIPR membrane potential fluorescence change (ΔF %, max minus min); negative values indicate KCNQ2/3 agonism” value is −49%.

Consider `CC(C)c1cccc(C(C)C)c1NC(=S)Nc1noc2cc(F)ccc12` [Example 114, 1-(2,6-diisopropylphenyl)-3-(6-fluorobenzo[d]isoxazol-3-yl)-thiourea], for which the “FLIPR membrane potential fluorescence change (ΔF %, max minus min); negative values indicate KCNQ2/3 agonism” value is on record as −54%.

Regarding `COCCCNC(=S)Nc1noc2cccc(N(C)C)c12` [Example 65, 1-(4-dimethylamino-benzo[d]isoxazol-3-yl)-3-(3-methoxypropyl)-thiourea], the “FLIPR membrane potential fluorescence change (ΔF %, max minus min); negative values indicate KCNQ2/3 agonism” value is reported as −79%.

For the compound `COc1cc(NC(=S)Nc2noc3cccc(OCC(F)(F)F)c23)cc(OC)c1OC` [Example 135, 1-[4-(2,2,2-trifluoroethoxy)-benzo[d]isoxazol-3-yl]-3-(3,4,5-trimethoxyphenyl)-thiourea], the “FLIPR membrane potential fluorescence change (ΔF %, max minus min); negative values indicate KCNQ2/3 agonism” value is −47.5%.

For the compound `Cc1cc(C)cc(CNc2noc3cc(F)ccc23)c1` [Example 169, (3,5-dimethylbenzyl)-(6-fluorobenzo[d]isoxazol-3-yl)-amine], the “FLIPR membrane potential fluorescence change (ΔF %, max minus min); negative values indicate KCNQ2/3 agonism” value is given as −63.25%.

In the case of `Cc1ccc(NC(=S)Nc2noc3cccc(N(C)C)c23)cc1` [Example 55, 1-(4-dimethylamino-benzo[d]-isoxazol-yl)-3-p-tolyl-thiourea], the “FLIPR membrane potential fluorescence change (ΔF %, max minus min); negative values indicate KCNQ2/3 agonism” value is reported as −84%.
